Assay results: US12281118B2, “Nitrogen-containing fused heterocyclic SHP2 inhibitor compound, preparation method, and use” (SHANGHAI RINGENE BIOPHARMA CO., LTD., priority 2018, dated 2025)
Read-outs that look alike come from different tables or passages of the source.

Tests used:
SHP2 enzyme = SHP2 enzyme (Homo sapiens (Human), UniProt Q06124); assay: Inhibitory activity against SHP2 enzyme (Caliper conversion rate); type: biochemical; settings: read-out: SHP2 Enzyme Inhibition IC50 Value
Description: (1) Preparing 1×Reaction Buffer according to the BPS Biosciences' Instructions for Use of the SHP2 enzyme. (2) Preparing a compound concentration gradient: Test the test compound at 10 μM under 3× dilution for 10 concentrations, diluting to a 100% dimethyl sulfoxide solution at a 100× final concentration in a 384-well plate, and diluting the compound with Precision 4× for 10 concentrations. Transferring 250 nL of the compound at the 100× final concentration to a target plate OptiPlate-384F using a dispenser Echo 550. […] (3) Preparing the activation peptide solution at a 5× final concentration with the 1×Reaction Buffer, adding 5 μL of the solution to a reaction plate, respectively, and centrifuging at 1000 rpm for 1 min. (4) Preparing an enzyme solution at a 2.5× final concentration with the 1×Reaction Buffer, adding 10 μL of the solution to the reaction plate, respectively, centrifuging at 1000 rpm for 1 min, and incubating at room temperature for 60 min. (5) Preparing a substrate peptide solution at a 2.5× final concentration with the 1×Reaction Buffer, centrifuging at 1000 rpm for 1 min, and incubating at room temperature for 30 min. (6) Adding 30 μL of stop test solution to stop the reaction, centrifuging at 1000 rpm for […], and mixing well by shaking. (7) Reading the conversion rate with a Caliper EZ Reader. (7) Data analysis:
Wherein: Conversion %/_sample is the reading of a conversion rate of a sample; Conversion %_min: mean of negative control wells, which represents the reading of a conversion rate in absence of enzyme activity wells; Conversion %_max: mean of a ratio of positive control wells, which represents the reading of a conversion rate in absence of compound inhibition wells.

MV4-11 leukemia cells = assay: Inhibition of proliferation of MV4-11 leukemia cells (CellTiter-Glo, 72 h); type: cell-based; settings: Homo sapiens, read-out: IC50 value, MV4-11 cell proliferation
Description: Specific experimental procedures: 1) At Day 0: Inoculating trypsin-digested cells in 96-well plate and suspending the plate in cell culture medium; measure cell density using an automatic cell counter, diluting the cells with the culture medium to appropriate density, adding 100 μl of cell suspension in the 96-well plate, and incubating a cell-free medium as a control well in a cell incubator with […] at 37° C. overnight; 2) Day 1: Treating test compounds of the cells using a drug for a total of 8 concentrations, and diluting at a 3× concentration, wherein 10 μM is a starting test concentration of the test compounds. […] IC50 values are obtained by a four-parameter regression using software attached to the plate reader (the specific results are shown in Table 2).

SHP2 enzyme, sequence (Q06124 whole entry): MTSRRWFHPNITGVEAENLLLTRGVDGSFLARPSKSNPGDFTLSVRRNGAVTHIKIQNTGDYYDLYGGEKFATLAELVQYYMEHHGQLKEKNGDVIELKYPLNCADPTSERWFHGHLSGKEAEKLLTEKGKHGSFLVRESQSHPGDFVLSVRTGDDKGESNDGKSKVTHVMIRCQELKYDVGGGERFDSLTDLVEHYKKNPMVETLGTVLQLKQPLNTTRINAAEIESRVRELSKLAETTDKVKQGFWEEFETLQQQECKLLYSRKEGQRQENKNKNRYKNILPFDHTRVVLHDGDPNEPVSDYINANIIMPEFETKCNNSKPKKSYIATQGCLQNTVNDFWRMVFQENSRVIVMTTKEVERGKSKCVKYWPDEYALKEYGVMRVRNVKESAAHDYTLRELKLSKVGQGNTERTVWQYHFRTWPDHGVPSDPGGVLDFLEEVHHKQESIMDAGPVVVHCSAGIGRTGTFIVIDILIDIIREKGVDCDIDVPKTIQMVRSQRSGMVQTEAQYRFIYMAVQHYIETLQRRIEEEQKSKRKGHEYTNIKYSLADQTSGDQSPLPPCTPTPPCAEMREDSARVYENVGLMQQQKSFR

| Compound | IC50 (SHP2 enzyme) [nM] | IC50 (MV4-11 leukemia cells; MV4-11, 72 h) [µM] | IC50 (MV4-11 leukemia cells; MV4-11, 72 h, in uM) [µM] |
| --- | --- | --- | --- |
| COc1ccc2c(c1)[C@@H](N)C1(CCN(c3nc(C)c(Sc4ccnc(N)c4Cl)c4nccn34)CC1)C2 [Example 7, (S)-1′-(8-((2-amino-3-chloropyridin-4-yl)thio)-7-methylimidazo [1,2-c]pyrimidin-5-yl)-6-methoxy-1,3-dihydrospiro [indene-2,4′-piperidine]-1-amine] | 2.1 | 0.0093 | – |
| CC1(N)CCN(c2nc(CF)c(-c3cccc(Cl)c3Cl)c3nccn23)CC1 [Example 28, 1-(8-(2,3-dichlorophenyl)-7-(fluoromethylene)imidazole [1,2-c]pyrimidin-5-yl)-4-methylpiperidin-4-amine] | – | 2.01 | – |
| Cc1cc(N2CCC3(CC2)Cc2ccccc2[C@H]3N)n2cnnc2c1Sc1ccnc(N)c1Cl [Example 18, (S)-1′-(8-((2-amino-3-chloropyridin-4-yl)thio)-7-methyl-[1,2,4]triazolo [4,3-a]pyridin-5-yl)-1,3-dihydrospiro [indene-2,4′-piperidine]-1-amine] | 24.6 | 0.86 | – |
| Cc1nc(N2CCC3(CC2)Cc2ccccc2[C@H]3N)n2ccnc2c1Sc1cccnc1C(F)(F)F [Example 2] | – | 0.0313 | – |
| Nc1nccc(Sc2c(CF)nc(N3CCC4(CC3)Cc3ccccc3[C@H]4N)n3ccnc23)c1Cl [Example 12, (S)-1′-(8-((2-amino-3-chloropyridin-4-yl)thio)-7-(fluoromethyl)imidazo [1,2-c]pyrimidin-5-yl)-1,3-dihydrospiro [indene-2,4′-piperidine]-1-amine] | 2.9 | 0.0247 | – |
| Cc1cc(N2CCC3(CC2)Cc2ccccc2[C@H]3N)n2ncnc2c1Sc1ccnc(N)c1Cl [Example 19, (S)-1′-(8-((2-amino-3-chloropyridin-4-yl)thio)-7-methyl-[1,2,4]triazolo [1,5-a]pyridin-5-yl)-1,3-dihydrospiro [indene-2,4′-piperidine]-1-amine] | 29.5 | 0.687 | – |
| Cc1nc(N2CCC3(CC2)Cc2ccccc2[C@H]3N)n2ccnc2c1Sc1ccnc(NC2CC2)c1Cl [Example 3, (S)-1′-(8-((3-chloro-2-(cyclopropylamino)pyridin-4-yl)thio)-7-methylimidazo [1,2-c]pyrimidin-5-yl)-1,3-dihydrospiro [indene-2,4′-piperidine]-1-amine] | 1 | 0.0028 | – |
| Nc1nc(N2CCC3(CC2)Cc2ccccc2[C@H]3N)n2ccnc2c1Sc1cccnc1C(F)(F)F [Example 5] | 0.8 | < 0.0015 | – |
| Cc1nc(N2CCC(C)(N)CC2)n2ncnc2c1-c1cccc(Cl)c1Cl [Example 21, 1-(8-(2,3-dichlorophenyl)-7-methyl-[1,2,4]triazole [1,5-c]pyrimidin-5-yl)-4-methylpiperidin-4-amine] | – | – | > 10 |
| Cc1cc(N2CCC(C)(N)CC2)n2cnnc2c1-c1cccc(Cl)c1Cl [Example 23, 1-(8-(2,3-dichlorophenyl)-7-methyl-[1,2,4]triazole [4,3-a]pyridin-5-yl)-4-methylpiperidin-4-amine] | – | – | > 10 |
| Cc1nc(N2CCC(C)(N)CC2)n2ccnc2c1Sc1cccc(Cl)c1Cl [Example 25, 1-(8 ((2,3-dichlorophenyl)sulfanyl)-7-methylimidazole [1,2-c]pyrimidin-5-yl)-4-methylpiperidin-4-amine] | – | 1.36 | – |
| Cc1nc(N2CCC3(CC2)Cc2cc(F)c(F)cc2[C@H]3N)n2ccnc2c1Sc1ccnc(N)c1Cl [Example 8, (S)-1′-(8-((2-amino-3-chloropyridin-4-yl)thio)-7-methylimidazo [1,2-c]pyrimidin-5-yl)-5,6-difluoro-1,3-dihydrospiro [indene-2,4′-piperidine]-1-amine] | 3.7 | 0.012 | – |
| Cc1nc(N2CCC(C)(N)CC2)n2ccnc2c1-c1cccc(Cl)c1Cl [Comparative Compound 1, 1-(8-(2,3-dichlorophenyl)-7-methylimidazo [1,2-c]pyrimidin-5-yl)-4-methylpiperidin-4-amine, reference compound] | 141 | 1.41 | – |
| Cc1nc(N2CCC3(CCC[C@H]3N)CC2)n2ccnc2c1Sc1ccnc(N)c1Cl [Example 26, (R)-8-(8-((2-amino-3-chloropyridin-4-yl)thio)-7-methylimidazole [1,2-c]pyrimidin-5-yl)-8-azaspiro [4.5] quin-1-amine] | 6.1 | 0.147 | – |
| Cc1nc(N2CCC3(CC2)Cc2ncccc2[C@H]3N)n2ccnc2c1Sc1ccnc(N)c1Cl [Example 6, (S)-1′-(8-((2-amino-3-chloropyridin-4-yl)thio)-7-methylimidazo [1,2-c]pyrimidin-5-yl)-5,7-dihydrospiro [cyclopentano [b]pyridine-6,4′-piperidine]-5-amine] | 1.3 | 0.0087 | – |
| Cc1nc(N2CCC3(CC2)Cc2ncsc2[C@H]3N)n2ccnc2c1Sc1ccnc(N)c1Cl [Example 14, (S)-1′-(8-((2-amino-3-chloropyridin-4-yl)thio)-7-methylimidazo [1,2-c]pyrimidin-5-yl)-4,6-dihydrospiro [cyclopentano [d]thiazol-5,4′-piperidine]-6-amine] | 3.1 | 0.0184 | – |
| Cc1nc(N2CCC3(CC2)Cc2ccccc2[C@H]3N)n2ccnc2c1-c1ccnc(N)c1Cl [Example 15, (S)-1′-(8-(2-amino-3-chloropyridin-4-yl)-7-methylimidazo [1,2-c]pyrimidin-5-yl)-1,3-dihydrospiro [indene-2,4′-piperidine]-1-amine] | 12.1 | 0.135 | – |
| Cc1nc(N2CCC(C)(N)CC2)n2cnnc2c1-c1cccc(Cl)c1Cl [Example 22, 1-(8-(2,3-dichlorophenyl)-7-methyl-[1,2,4]triazole [4,3-c]pyrimidin-5-yl)-4-methylpiperidin-4-amine] | – | – | > 10 |
| Cc1nc(N2CCC3(CC2)Oc2ccccc2[C@H]3N)n2ccnc2c1Sc1ccnc(N)c1Cl [Example 13, (R)-1′-(8-((2-amino-3-chloropyridin-4-yl)thio)-7-methylimidazo [1,2-c]pyrimidin-5-yl)-3H-spiro [benzofuran-2,4′-piperidine]-3-amine] | 1.8 | 0.0392 | – |
| Cc1cc(N2CCC3(CC2)Cc2ccccc2[C@H]3N)n2ccnc2c1Sc1ccnc(N)c1Cl [Example 17, (S)-1′-(8-((2-amino-3-chloropyridin-4-yl)thio)-7-methylimidazo [1,2-a]pyridin-5-yl)-1,3-dihydrospiro [indene-2,4′-piperidine]-1-amine] | 9.1 | 0.048 | – |
| Cc1cc(N2CCC(C)(N)CC2)n2ccnc2c1-c1cccc(Cl)c1Cl [Example 24, 1-(8-(2,3-dichlorophenyl)-7-methylimidazolo [1,2-a]pyridin-5-yl)-4-methylpiperidin-4-amine] | 706 | – | 5.4 |
| Cc1nc(N2CCC3(CC2)Cc2ccccc2C3N)n2ccnc2c1Sc1ccnc(N)c1Cl (stereo not shown) [Example 20, 1′-(8-((2-amino-3-chloropyridin-4-yl)thio)-7-methylimidazo [1,2-c]pyrimidin-5-yl)-1,3-dihydrospiro [indene-2,4′-piperidine]-1-amine] | 3.8 | 0.0094 | – |
| Cc1nc(N2CCC3(CC2)Cc2ccccc2[C@H]3N)n2ccnc2c1-c1cccnc1C(F)(F)F [Example 16, (S)-1′-(7-methyl-8-(2-(trifluoromethyl)pyridin-3-yl)imidazo [1,2-c]pyrimidin-5-yl)-1,3-dihydrospiro [indene-2,4′-piperidine]-1-amine] | 9.5 | 0.108 | – |
